{
  "source": "patent US11268069B2",
  "about": "“Reprogramming methods and cell culture platforms” (Fate Therapeutics, Inc., priority 2014, dated 2022)",
  "system": "hiPSC clone FTi111",
  "assay": "Thaw of hiPSC clone FTi111 into various culture environments",
  "format": "cell-based, human",
  "conditions": "conventional culture with feeder cells",
  "data": [
    {"compound": "O=C(NCc1ccccc1)c1csc(Nc2ccncn2)n1", "note": "[Thiazovivin]", "values": [
      {"measurement": "recovery of hiPSC colonies post thaw", "result": "only recovered in the presence of Thiazovivin"}
    ]}
  ]
}
